From US11674962B2, “Therapeutic and diagnostic methods for cancer” (Genentech, Inc., priority 2017, dated 2023)

What was measured:
[1] = system: locally advanced or metastatic non-small cell lung cancer (NSCLC); experiment: OAK phase III clinical trial (NCT02008227): atezolizumab vs docetaxel, outcomes by bTMB score and PD-L1 IHC; format: in vivo, human
Procedure: A blood-based assay was used to evaluate the association between clinical response to treatment with atezolizumab (MPDL3280A) and blood tumor mutational burden (bTMB) score in patients with non-small cell lung cancer (NSCLC) enrolled in two clinical trials, a phase II clinical trial, POPLAR (Clinical Trial ID No.: NCT01903993), and a phase III clinical trial, OAK (Clinical Trial ID No.: NCT02008227), in which atezolizumab was administered as a monotherapy.
Pre-treatment blood samples from patients with NSCLC who were enrolled in the POPLAR and/or the OAK studies, in which atezolizumab was administered as a monotherapy, were evaluated for bTMB score and/or maximum somatic allele frequency (MSAF).
The OAK (Clinical Trial ID No.: NCT02008227) patient population evaluated for bTMB score consisted of 583 patients. Patients were eligible for enrollment in the OAK study if they had locally advanced or metastatic (e.g., stage IIIB, stage IV, or recurrent) NSCLC; disease progression during or following treatment with a prior platinum-containing regimen for locally advanced, unresectable/inoperable, or metastatic NSCLC, or disease recurrence within 6 months of treatment with a platinum-based adjuvant/neoadjuvant regimen; measurable disease, as defined by RECIST v1.1; and an ECOG performance status of 0 or 1. Participants were randomized to receive either atezolizumab at a dose of 1200 mg intravenously every three weeks or docetaxel 75 mg per square meter (mg/m^2) intravenously every three weeks. Treatment with atezolizumab could be continued as long as participants were experiencing clinical benefit, i.e., in the absence of unacceptable toxicity or symptomatic deterioration attributed to disease progression.
Analysis of bTMB was performed retrospectively. Progression-free survival (PFS) was defined as the time between date of randomization and date of first documented disease progression as assessed by the investigator using RECIST v.1.1 or death from any cause, whichever occurred first. Overall survival (OS) was defined as the time between the date of randomization until death due to any cause. Treatment arms were compared for OS and PFS individually using a univariate Cox regression model without stratification in the biomarker evaluable-population (BEP) and their subgroups or using a stratified (by randomization stratification factors) Cox model in the ITT population. No multiplicity correction was applied to p-values or confidence intervals (CI). Kaplan-Meier methodology was used to estimate median OS and PFS and construct survival curves.
In the OAK ITT population (N=850), 797 samples were available for analysis. Of these samples, 13 were removed for sample contamination >1%; 42 were removed for median exon coverage <800×; and 100 were removed for low MSAF<1%.
The OAK BEP (N=642) included 59 patients with EGFR mutation or ALK rearrangement, and 583 without known alterations.
To identify somatic mutations and calculate a bTMB score, whole blood samples obtained from each patient (collected in EDTA or Streck tubes) were processed through a series of spins to isolate plasma, from which cell free DNA (cfDNA) was extracted for sequencing analysis. Specifically, at least 20 ng purified cfDNA was used for library construction. Next-generation sequencing libraries using fragment barcodes and hybrid capture were constructed to analyze and sequence a pre-determined set of 394 genes that covered approximately 1.125 Mb of the exome. Specifically, purified libraries were hybrid captured using a 394-gene bait set and then further purified, pooled and loaded on an ILLUMINA® HISEQ® 4000 sequencing system. Sequenced libraries were aligned and sorted. In order to accurately call variants at low allele frequencies and minimize artifacts from sequencing, PCR, or DNA damage-related errors, sequenced libraries were processed by a cfDNA computational pipeline that corrected errors via the use of fragment barcodes. […]

[2] = system: non-small cell lung cancer (NSCLC); experiment: Combined POPLAR and OAK studies: PFS by bTMB score; format: in vivo, human; conditions: combined BEP of POPLAR and OAK (n=775), reference bTMB score of 14, atezolizumab vs docetaxel
From the text: FIG. 7A is a graph showing the Kaplan-Meier Curve of PFS of the combined BEP of patients (nBEP=775 patients; HR=0.62) in the atezolizumab treatment arm (black) and docetaxel control arm (gray) of the POPLAR and OAK studies, each arm stratified according to bTMB score. Patients with a bTMB score that is greater than, or equal to, a reference bTMB score of 14 are indicated by solid lines (Dx+) and patients with a bTMB that is lower than a reference bTMB score of 14 are indicated by dashed lines (Dx−). […] The time point for each column corresponds to the times shown along the x-axis of the above graph. Patient samples having an MSAF less than 1% were excluded from analysis. Sequence coverage was greater than, or equal to, 800. […]
Analysis of bTMB was performed retrospectively. Progression-free survival (PFS) was defined as the time between date of randomization and date of first documented disease progression as assessed by the investigator using RECIST v.1.1 or death from any cause, whichever occurred first. […]

[3] = OAK BEP with valid bTMB and PD-L1 IHC results, bTMB ≥16, n=156
[4] = OAK, bTMB score subgroup ≥10 (251 patients), atezolizumab vs docetaxel
[5] = OAK, bTMB score subgroup ≥16 (158 patients), atezolizumab vs docetaxel
[6] = OAK, bTMB score subgroup ≥20 (105 patients), atezolizumab vs docetaxel

## atezolizumab
[1]; OAK BEP with valid bTMB and PD-L1 IHC results, TC3 or IC3, n=103
  OS HR (95% CI): 0.44 (0.27-0.71)
[1]; [3]
  OS HR (95% CI): 0.64 (0.44-0.93)
  PFS HR (95% CI): 0.64 (0.46, 0.91)
[1]; OAK, BEP (n = 583), atezolizumab vs docetaxel
  OS HR (95% CI): 0.64
[1]; OAK, IHC− (complementary to TC1/2/3) and bTMB ≥16, n=93
  PFS HR (95% CI): 0.78
[1]; OAK, IHC− (complementary to TC1/2/3 or IC1/2/3) and bTMB ≥16, n=53
  PFS HR (95% CI): 0.68
[1]; OAK, IHC− (complementary to TC2/3) and bTMB ≥16, n=110
  PFS HR (95% CI): 0.69
[1]; OAK, IHC− (complementary to TC2/3 or IC2/3) and bTMB ≥16, n=94
  PFS HR (95% CI): 0.65
[1]; OAK, IHC− (complementary to TC3 or IC3) and bTMB ≥16, n=126
  PFS HR (95% CI): 0.70
[1]; OAK, ITT (n = 850), atezolizumab vs docetaxel
  OS HR (95% CI): 0.73
[1]; OAK, PD-L1 IHC TC0 and IC0 (bTMB evaluable), n=250
  PFS HR (95% CI): 0.95
[1]; OAK, PD-L1 IHC TC1/2/3, IHC+ (bTMB evaluable), n=192
  PFS HR (95% CI): 0.65
[1]; OAK, PD-L1 IHC TC1/2/3 or IC1/2/3, IHC+ (bTMB evaluable), n=328
  PFS HR (95% CI): 0.83
[1]; OAK, PD-L1 IHC TC2/3, IHC+ (bTMB evaluable), n=150
  PFS HR (95% CI): 0.65
[1]; OAK, PD-L1 IHC TC2/3 or IC2/3, IHC+ (bTMB evaluable), n=200
  PFS HR (95% CI): 0.71
[1]; OAK, TC0 and IC0 and bTMB <16, n=197
  PFS HR (95% CI): 1.03
[1]; OAK, TC0 and IC0 and bTMB ≥16, n=53
  PFS HR (95% CI): 0.68
[1]; OAK, TC1/2/3 and bTMB <16, n=129
  PFS HR (95% CI): 0.72
[1]; OAK, TC1/2/3 and bTMB ≥16, n=63
  PFS HR (95% CI): 0.55
[1]; OAK, TC1/2/3 or IC1/2/3 and bTMB <16, n=225
  PFS HR (95% CI): 0.94
[1]; OAK, TC1/2/3 or IC1/2/3 and bTMB ≥16, n=103
  PFS HR (95% CI): 0.65
[1]; OAK, TC2/3 and bTMB <16, n=106
  PFS HR (95% CI): 0.70
[1]; OAK, TC2/3 and bTMB ≥16, n=44
  PFS HR (95% CI): 0.55
[1]; OAK, TC2/3 or IC2/3 and bTMB <16, n=140
  PFS HR (95% CI): 0.73
[1]; OAK, TC2/3 or IC2/3 and bTMB ≥16, n=60
  PFS HR (95% CI): 0.65
[1]; OAK, TC3 or IC3 and bTMB <16, n=73
  PFS HR (95% CI): 0.71
[1]; [4]
  OS HR: 0.69
  PFS HR: 0.73
[1]; [5]
  OS HR: 0.64
  PFS HR: 0.65
[1]; [6]
  OS HR: 0.65
  PFS HR: 0.61
[1]; OAK, bTMB≥16, per treatment arm
  median OS: 13.5 months
[1]; OAK, bTMB≥16 patients, per treatment arm
  best overall response rate: 21%
[1]; OAK, reference bTMB score of 14 (Dx+, n=188), atezolizumab vs docetaxel
  PFS HR: 0.68
[1]; OAK, reference bTMB score of 18 (Dx+, n=132), atezolizumab vs docetaxel
  PFS HR: 0.66
[2]
  PFS HR: 0.62
